Laboratory results taken from patent US9181258B2, “Substituted 3,4-dihydropyrrolo[1,2-a]pyrazin-1(2H)-ones as protein kinase inhibitors” (NERVIANO MEDICAL SCIENCES S.R.L., priority 2011, dated 2015).
Counter-ions that a name gives are not always drawn.

Legend:
human PIM2 = human PIM2 (Homo sapiens (Human), UniProt Q9P1W9); assay: PIM2 kinase inhibition assay: Dowex technique; assay type: biochemical; details: ATP 4 μM, Aktide 5 μM, enzyme 1.5 nM; read-out: PIM-2 IC50
Procedure: Method for PIM2 Kinase Inhibition Assay: Dowex Technique
The buffer for PIM2 assay was composed of HEPES 50 mM, at pH 7.5, with 1 mM MgCl2, 1 mM DTT, 3 μM Na3VO4, and 0.2 mg/mL BSA.
Full-length human PIM2 was expressed and purified as described in Fedorov O, et al., PNAS 2007 104, 51, 20523-28. ii. Assay Conditions (Final Concentrations)
Enzyme concentration=1.5 nM; ATP=4 μM; ^33P-γ-ATP=1 nM
Aktide substrate (Chemical Abstract Service Registry Number 324029-01-8)=5 μM iii. Robotized Dowex Assay
See above: same procedure as described for PIM1.

BaF3-PIM1 cells = assay: In vitro cell proliferation assay (CellTiter-Glo), BaF3-PIM1; assay type: cell-based; details: 72 hours
Procedure: (§1) In Vitro Cell Proliferation Assay
(§2) BaF3-PIM1 and MV-4-11 cells were seeded at 125 cells/well and 1250 cells/well respectively in a 384-well white plates in complete medium and treated with compounds dissolved in 0.1% DMSO, 24 h after seeding.
(§3) The cells were incubated at 37° C. and 5% CO2 and after 72 hours the plates were processed using CellTiter-Glo assay (Promega) following the manufacturer's instruction.
(§4) CellTiter-Glo was a homogenous method based on the quantification of the ATP present, an indicator of metabolitically active cells. ATP was quantified using a system based on luciferase and D-luciferin resulting into light generation. The luminescent signal was proportional to the number of cells present in culture.
(§5) Briefly 25 μl/well reagent solution were added to each wells and after 5 minutes shacking microplates were red by Envision (PerkinElmer) luminometer. The luminescent signal was proportional to the number of cells present in culture.
(§6) Inhibitory activity was evaluated comparing treated versus control data using Assay Explorer (MDL) program. IC50 was calculated using sigmoidal interpolation curve.

human PIM1 = human PIM1 (Homo sapiens (Human), UniProt P11309); assay: Biochemical assay for inhibitors of PIM1 kinase activity (trans-phosphorylation, Dowex technique); details: ATP 200 μM, Aktide 25 μM, enzyme 1 nM; read-out: PIM-1 IC50
Chain of human PIM1 (P11309 whole entry): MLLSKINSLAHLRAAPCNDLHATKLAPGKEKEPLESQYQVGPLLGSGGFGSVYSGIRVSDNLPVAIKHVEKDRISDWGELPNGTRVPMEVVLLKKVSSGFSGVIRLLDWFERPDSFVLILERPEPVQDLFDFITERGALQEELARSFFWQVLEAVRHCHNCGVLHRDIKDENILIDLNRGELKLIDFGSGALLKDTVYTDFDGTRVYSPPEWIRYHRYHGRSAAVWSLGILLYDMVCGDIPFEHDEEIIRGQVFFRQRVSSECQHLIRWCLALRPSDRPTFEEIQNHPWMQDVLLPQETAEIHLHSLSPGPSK
Procedure: Biochemical Assay for Inhibitors of PIM1 Kinase Activity
The inhibitory activity of putative kinase inhibitors and the potency of selected compounds were determined using a trans-phosphorylation assay.
Specific peptide or protein substrates were trans-phosphorylated by their specific ser-thr or tyr kinase in the presence of ATP traced with ^33P-γ-ATP, and in the presence of their own optimal buffer and cofactors.
At the end of the phosphorylation reaction, more than 98% unlabeled ATP and radioactive ATP were captured by an excess of the ion exchange dowex resin; the resin then settled down to the bottom of the reaction plate by gravity. Supernatant was subsequently withdrawn and transferred into a counting plate, then evaluated by β-counting.
Reagents/Assay Conditions i. Dowex Resin Preparation
500 g of wet resin (SIGMA, custom prepared resin DOWEX 1×8 200-400 mesh, 2.5 Kg) were weighed out and diluted to 2 L in 150 mM sodium formate, pH 3.00.
The resin was allowed to settle down (some hours) and then the supernatant was discarded.
After three washes as above over a couple of days, the resin was allowed to settle and two volumes (wrt the resin volume) of 150 mM sodium formate buffer were added.
The pH was then measured and should have been around 3.00.
The washed resin was stable for more than one week; the stock resin was kept at 4° C. before use.
The buffer for PIM1 assay was composed of HEPES 50 mM, at pH 7.5, with 10 mM MgCl2, 1 mM DTT, 3 μM NaVO3, and 0.2 mg/mL BSA.
Full-length human PIM1 was expressed and purified as described in Bullock A N, et al., J. Biol. Chem. 2005, 280, 41675-82.
1.7 μM PIM1 was incubated 1 h at 28° C. in the presence of 125 μM ATP.
ATP concentration: 200 μM; ^33P-γ-ATP: 6 nM; Enzyme concentration: 1 nM Substrate concentration Aktide (Chemical Abstract Service Registry Number 324029-01-8): 25 μM iv. Robotized Dowex Assay
The test mix consisted of:
1) 3× Enzyme mix (done in Kinase Buffer 3×), 5 μL/well
2) 3× substrate and ATP mix (done in ddH2O), together with ^33P-γ-ATP, 5 μL/well 3) 3× test compounds (diluted into ddH2O—3% DMSO)—5 μL/well See below for compound dilution and assay scheme […]
An automated station (Biomek FX, Beckman) was used for serial dilutions, producing 1:3 dilutions in 100% DMSO, from line A1 to A10, for all the compounds in the column.
Data were analyzed by an internally customized version of the “Assay Explorer” SW package, which provided sigmoidal fitting of the ten-dilution curves for IC50 determination in secondary assay/hit confirmation routines.

MV-4-11 cells = assay: In vitro cell proliferation assay (CellTiter-Glo), MV-4-11; assay type: cell-based; details: Homo sapiens, MV4-11, 72 hours
Procedure: as §1
MV-4-11 (biphenotypic B myelomonocytic leukemia) cell line was obtained from ATCC.
Media for MV-4-11 cell line contained RPMI 1640 or EMEM plus 2 mM Glutamine and 10% Fetal bovine serum.
as §2, §3, §4, §5, §6

Chain of human PIM2 (Q9P1W9 whole entry): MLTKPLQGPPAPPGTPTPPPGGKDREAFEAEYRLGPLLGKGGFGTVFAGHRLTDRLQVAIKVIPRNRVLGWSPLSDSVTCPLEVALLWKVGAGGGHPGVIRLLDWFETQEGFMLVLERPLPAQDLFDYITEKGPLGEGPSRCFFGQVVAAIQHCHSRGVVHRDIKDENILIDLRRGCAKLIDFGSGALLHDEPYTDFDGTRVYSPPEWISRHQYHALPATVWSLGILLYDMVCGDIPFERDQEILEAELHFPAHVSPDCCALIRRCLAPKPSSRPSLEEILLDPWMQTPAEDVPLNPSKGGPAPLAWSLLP

Compound	IC50 (human PIM2)	IC50 (BaF3-PIM1 cells)	IC50 (human PIM1)	IC50 (MV-4-11 cells)
CN(C)Cc1ccc(-c2c(-c3cccc(OC(F)(F)F)c3)cc3n2C(CCO)CNC3=O)cc1 (stereo not shown) [Compound 83, 6-{4-[(dimethylamino)methyl]phenyl}-4-(2-hydroxyethyl)-7-[3-(trifluoromethoxy)phenyl]-3,4-dihydropyrrolo[1,2-a]pyrazin-1(2H)-one trifluoroacetate]	38 nM	329 nM	4 nM	2890 nM
NCC[C@H]1CNC(=O)c2cc(-c3cccc(OC(F)(F)F)c3)c(-c3ccccc3)n21 [Compound 87, (4S)-4-(2-aminoethyl)-6-phenyl-7-[3-(trifluoromethoxy)phenyl]-3,4-dihydropyrrolo[1,2-a]pyrazin-1(2H)-one]	38 nM	202 nM	9 nM	3610 nM
CC(=O)c1ccc(-c2c(-c3cccc(OC(F)(F)F)c3)cc3n2[C@@H](CCN)CNC3=O)cc1 [Compound 95, (4S)-6-(4-acetylphenyl)-4-(2-aminoethyl)-7-[3-(trifluoromethoxy)phenyl]-3,4-dihydropyrrolo[1,2-a]pyrazin-1(2H)-one hydrochloride]	17 nM	573 nM	6 nM	1260 nM
NCC[C@H]1CNC(=O)c2cc(-c3cccc(OC(F)(F)F)c3)c(-c3ccc(CN4CCOCC4)cc3)n21 [Compound 99, (4S)-4-(2-aminoethyl)-6-[4-(morpholin-4-ylmethyl)phenyl]-7-[3-(trifluoromethoxy)phenyl]-3,4-dihydropyrrolo[1,2-a]pyrazin-1(2H)-one hydrochloride]	7 nM	410 nM	2 nM	672 nM
CN1CCN(Cc2ccc(-c3c(-c4cccc(OC(F)(F)F)c4)cc4n3[C@@H](CCN)CNC4=O)cc2)CC1 [Compound 100, (4S)-4-(2-aminoethyl)-6-{4-[(4-methylpiperazin-1-yl)methyl]phenyl}-7-[3-(trifluoromethoxy)phenyl]-3,4-dihydropyrrolo[1,2-a]pyrazin-1(2H)-one hydrochloride]	2 nM	3100 nM	1 nM	616 nM
CN(C)Cc1ccc(-c2c(-c3cccc(OC(F)(F)F)c3)cc3n2[C@@H](CCN)CNC3=O)cc1 [Compound 101, (4S)-4-(2-aminoethyl)-6-{4-[(dimethylamino)methyl]phenyl}-7-[3-(trifluoromethoxy)phenyl]-3,4-dihydropyrrolo[1,2-a]pyrazin-1(2H)-one hydrochloride]	9 nM	296 nM	1 nM	939 nM
NCC[C@H]1CNC(=O)c2cc(-c3cccc(OC(F)(F)F)c3)c(-c3ccc4c(c3)OCO4)n21 [Compound 112, (4S)-4-(2-aminoethyl)-6-(1,3-benzodioxol-5-yl)-7-[3-(trifluoromethoxy)phenyl]-3,4-dihydropyrrolo[1,2-a]pyrazin-1(2H)-one hydrochloride]	16 nM	71 nM	6 nM	1770 nM
CN(C)c1ccc(-c2c(-c3cccc(OC(F)(F)F)c3)cc3n2[C@@H](CCN)CNC3=O)cc1 [Compound 115, (4S)-4-(2-aminoethyl)-6-[4-(dimethylamino)phenyl]-7-[3-(trifluoromethoxy)phenyl]-3,4-dihydropyrrolo[1,2-a]pyrazin-1(2H)-one hydrochloride]	46 nM	76 nM	3 nM	812 nM

Second part, the compound after the results:

IC50 (human PIM2)	IC50 (BaF3-PIM1 cells)	IC50 (human PIM1)	IC50 (MV-4-11 cells)	Compound
69 nM	85 nM	12 nM	3660 nM	NCC[C@H]1CNC(=O)c2cc(-c3cccc(OC(F)(F)F)c3)c(-c3ccsc3)n21 [Compound 85, (4S)-4-(2-aminoethyl)-6-(thiophen-3-yl)-7-[3-(trifluoromethoxy)phenyl]-3,4-dihydropyrrolo[1,2-a]pyrazin-1(2H)-one hydrochloride]
15 nM	147 nM	5 nM	2200 nM	Cc1cccc(-c2c(-c3cccc(OC(F)(F)F)c3)cc3n2[C@@H](CCN)CNC3=O)c1 [Compound 92, (4S)-4-(2-aminoethyl)-6-(3-methylphenyl)-7-[3-(trifluoromethoxy)phenyl]-3,4-dihydropyrrolo[1,2-a]pyrazin-1(2H)-one hydrochloride]
27 nM	428 nM	20 nM	5420 nM	NCC[C@H]1CNC(=O)c2cc(-c3cccc(OC(F)(F)F)c3)c(-c3ccc(F)cc3)n21 [Compound 94, (4S)-4-(2-aminoethyl)-6-(4-fluorophenyl)-7-[3-(trifluoromethoxy)phenyl]-3,4-dihydropyrrolo[1,2-a]pyrazin-1(2H)-one hydrochloride]
22 nM	1500 nM	7 nM	2100 nM	NCC[C@H]1CNC(=O)c2cc(-c3cccc(OC(F)(F)F)c3)c(-c3ccc(C=O)cc3)n21 [Compound 97, 4-{(4S)-4-(2-aminoethyl)-1-oxo-7-[3-(trifluoromethoxy)phenyl]-1,2,3,4-tetrahydropyrrolo[1,2-a]pyrazin-6-yl}benzaldehyde hydrochloride]
156 nM	836 nM	19 nM	1640 nM	NCCC[C@H]1CNC(=O)c2cc(-c3cccc(OC(F)(F)F)c3)c(-c3ccccc3)n21 [Compound 102, (4S)-4-(3-aminopropyl)-6-phenyl-7-[3-(trifluoromethoxy)phenyl]-3,4-dihydropyrrolo[1,2-a]pyrazin-1(2H)-one hydrochloride]
153 nM	1180 nM	11 nM	2930 nM	NCCC[C@H]1CNC(=O)c2cc(-c3cccc(OC(F)(F)F)c3)c(-c3ccsc3)n21 [Compound 103, (4S)-4-(3-aminopropyl)-6-(thiophen-3-yl)-7-[3-(trifluoromethoxy)phenyl]-3,4-dihydropyrrolo[1,2-a]pyrazin-1(2H)-one hydrochloride]
129 nM	3900 nM	22 nM	3200 nM	CC(=O)c1ccc(-c2c(-c3cccc(OC(F)(F)F)c3)cc3n2[C@@H](CCCN)CNC3=O)cc1 [Compound 110, (4S)-6-(4-acetylphenyl)-4-(3-aminopropyl)-7-[3-(trifluoromethoxy)phenyl]-3,4-dihydropyrrolo[1,2-a]pyrazin-1(2H)-one hydrochloride]
22 nM	142 nM	3 nM	861 nM	COc1ccc(-c2c(-c3cccc(OC(F)(F)F)c3)cc3n2[C@@H](CCN)CNC3=O)cc1 [Compound 116, (4S)-4-(2-aminoethyl)-6-(4-methoxyphenyl)-7-[3-(trifluoromethoxy)phenyl]-3,4-dihydropyrrolo[1,2-a]pyrazin-1(2H)-one hydrochloride]
